Source: patent US20130071854A1, “METHODS FOR THE IDENTIFICATION AND CHARACTERIZATION OF HDAC INTERACTING COMPOUNDS” (priority 2009, published 2013)
Where two headings read alike, the source gives them in different places.

Legend:
HDAC1 = biological target: T1, HDAC1 (Homo sapiens, UniProt Q13547); test: Chemoproteomic binding profiling, K562 cell extract, SAHA/ITF2357 probe matrix (Kd app); details: protein HDAC1; class I HDAC; read-out: Kd^app HDAC1
T1 construct: used to probe endogenous HDACs in K562 whole cell extracts; endogenous in cells
T1 sequence (Q13547 whole entry): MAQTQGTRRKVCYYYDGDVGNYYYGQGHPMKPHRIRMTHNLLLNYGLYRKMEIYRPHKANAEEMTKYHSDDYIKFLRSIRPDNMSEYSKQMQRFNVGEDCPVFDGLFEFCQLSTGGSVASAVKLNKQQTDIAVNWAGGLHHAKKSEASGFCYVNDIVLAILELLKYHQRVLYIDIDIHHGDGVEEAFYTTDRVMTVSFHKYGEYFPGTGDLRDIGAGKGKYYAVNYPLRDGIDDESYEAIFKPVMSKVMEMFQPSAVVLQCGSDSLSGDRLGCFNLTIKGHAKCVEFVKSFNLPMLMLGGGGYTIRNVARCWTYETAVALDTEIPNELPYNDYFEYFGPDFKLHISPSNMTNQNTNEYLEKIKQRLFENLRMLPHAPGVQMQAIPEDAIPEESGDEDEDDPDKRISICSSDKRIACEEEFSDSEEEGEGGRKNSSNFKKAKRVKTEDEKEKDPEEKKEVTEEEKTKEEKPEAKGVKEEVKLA

[1] = biological target: T2, non-HDAC targets (e.g. BZW2, ISOC2, aldehyde dehydrogenases) (Homo sapiens, UniProt O94788); test: as above; details: protein ALDH1A2; selected HDACi off-targets
T2 construct: endogenous in cells; host or cells: K562 whole cell extract
T2 sequence (O94788 1-518): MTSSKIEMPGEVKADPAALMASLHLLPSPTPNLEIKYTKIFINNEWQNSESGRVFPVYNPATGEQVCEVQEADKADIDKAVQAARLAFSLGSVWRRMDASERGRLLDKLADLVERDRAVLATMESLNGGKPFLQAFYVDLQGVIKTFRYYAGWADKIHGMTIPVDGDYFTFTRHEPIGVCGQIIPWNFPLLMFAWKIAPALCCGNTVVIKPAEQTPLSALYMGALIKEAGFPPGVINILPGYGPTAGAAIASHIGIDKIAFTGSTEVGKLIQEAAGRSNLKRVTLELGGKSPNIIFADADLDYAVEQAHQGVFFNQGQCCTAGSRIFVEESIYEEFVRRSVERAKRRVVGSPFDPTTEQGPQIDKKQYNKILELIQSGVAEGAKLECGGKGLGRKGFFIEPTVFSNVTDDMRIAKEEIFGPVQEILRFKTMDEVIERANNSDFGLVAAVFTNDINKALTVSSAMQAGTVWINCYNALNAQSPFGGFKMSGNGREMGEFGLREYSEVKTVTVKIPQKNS

[2] = biological target: T3, non-HDAC targets (e.g. BZW2, ISOC2, aldehyde dehydrogenases) (Homo sapiens, UniProt Q08209); test: as above; details: protein PPP3CA; selected HDACi off-targets
T3 construct: Kd^app PPP3CA; other: protein PPP3CA; selected HDACi off-targets

[3] = biological target: T4, non-HDAC targets (e.g. BZW2, ISOC2, aldehyde dehydrogenases) (Homo sapiens, UniProt P16152); test: as above; details: protein CBR1; selected HDACi off-targets
T4 construct: Kd^app CBR1; other: protein CBR1; selected HDACi off-targets
T4 sequence (P16152 1-277): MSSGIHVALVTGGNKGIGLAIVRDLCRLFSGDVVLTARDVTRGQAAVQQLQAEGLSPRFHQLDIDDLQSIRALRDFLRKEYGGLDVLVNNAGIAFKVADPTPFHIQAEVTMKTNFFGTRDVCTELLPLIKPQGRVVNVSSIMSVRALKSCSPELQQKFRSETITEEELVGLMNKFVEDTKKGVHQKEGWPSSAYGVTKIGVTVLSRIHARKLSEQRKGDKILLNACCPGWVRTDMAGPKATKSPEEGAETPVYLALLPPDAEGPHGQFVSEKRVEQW

[4] = biological target: T5, non-HDAC targets (e.g. BZW2, ISOC2, aldehyde dehydrogenases) (Homo sapiens, UniProt Q96AB3); test: as above; details: protein ISOC2; selected HDACi off-targets
T5 construct: endogenous in cells; host or cells: K562 whole cell extract
T5 sequence (Q96AB3 1-205): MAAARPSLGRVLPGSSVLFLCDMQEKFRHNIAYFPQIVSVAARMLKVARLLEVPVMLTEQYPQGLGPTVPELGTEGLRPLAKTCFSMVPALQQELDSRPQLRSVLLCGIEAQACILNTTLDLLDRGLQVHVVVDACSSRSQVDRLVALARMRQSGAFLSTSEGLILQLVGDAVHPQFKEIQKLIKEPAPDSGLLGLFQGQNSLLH

[5] = biological target: T6, non-HDAC targets (e.g. BZW2, ISOC2, aldehyde dehydrogenases) (Homo sapiens, UniProt Q9Y6E2); test: as above; details: protein BZW2; selected HDACi off-targets
T6 construct: endogenous in cells; host or cells: K562 whole cell extract
T6 sequence (Q9Y6E2 1-419): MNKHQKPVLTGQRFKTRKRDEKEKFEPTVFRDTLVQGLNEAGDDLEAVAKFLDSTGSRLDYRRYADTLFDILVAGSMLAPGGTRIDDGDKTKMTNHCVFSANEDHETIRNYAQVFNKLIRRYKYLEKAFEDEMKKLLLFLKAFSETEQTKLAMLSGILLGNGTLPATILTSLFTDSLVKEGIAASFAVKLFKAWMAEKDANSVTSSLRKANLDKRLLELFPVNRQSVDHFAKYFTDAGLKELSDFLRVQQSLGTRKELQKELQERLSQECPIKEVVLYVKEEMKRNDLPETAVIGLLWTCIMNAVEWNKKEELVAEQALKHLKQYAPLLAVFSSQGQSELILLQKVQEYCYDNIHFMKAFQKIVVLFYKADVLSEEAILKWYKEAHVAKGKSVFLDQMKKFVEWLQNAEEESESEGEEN

CoREST complex = test: as above; design: species or system human
EHMT2 = test: Chemoproteomic binding profiling, K562 cell extract, SAHA/ITF2357 probe matrix (Kd app), ELSA (ELM-SANT) domain proteins group; design: species or system human; details: protein EHMT2
[6] = system: acetylated histones H3 and H4; test: Cell-based histone acetylation assay (immunofluorescence, western blotting); design: species or system human; details: K562 and HeLa cells
[7] = protein GSE1, CoREST complex, read-out: Kd^app GSE1
[8] = protein HMG20A, CoREST complex, read-out: Kd^app HMG20A
[9] = protein HMG20B, CoREST complex, read-out: Kd^app HMG20B
[10] = protein RCOR1, CoREST complex, read-out: Kd^app RCOR1
[11] = protein RCOR2, CoREST complex, read-out: Kd^app RCOR2
[12] = protein RCOR3, CoREST complex, read-out: Kd^app RCOR3
[13] = protein ZMYM2, CoREST complex, read-out: Kd^app ZMYM2
[14] = protein ZMYM3, CoREST complex, read-out: Kd^app ZMYM3

Kd (HDAC1) [µM] | Structure (SMILES) | Kd [1] [µM] | Kd [2] [µM] | Kd [3] [µM] | Kd [4] [µM] | Kd [5] [µM] | Kd (CoREST complex; [7]) [µM] | Kd (CoREST complex; [8]) [µM] | Kd (CoREST complex; [9]) [µM] | Kd (CoREST complex; [10]) [µM] | Kd (CoREST complex; [11]) [µM] | Kd (CoREST complex; [12]) [µM] | Kd (CoREST complex; [13]) [µM] | Kd (CoREST complex; [14]) [µM] | Kd (EHMT2) [µM] | histone acetylation (in words) [6] | further results
 | Nc1ccccc1NC(=O)c1ccc(CNC(=O)OCc2cccnc2)cc1 [MS-275] | > 300 | > 300 | > 300 | > 300 | > 300 |  |  |  |  |  |  |  |  | > 300 |  | Kd (CoREST complex; read-out: Kd^app GSE1): > 300 µM; Kd (CoREST complex; read-out: Kd^app HMG20A): > 300 µM; Kd (CoREST complex; read-out: Kd^app HMG20B): > 300 µM; Kd (CoREST complex; read-out: Kd^app PHF21A): > 300 µM; Kd (CoREST complex; read-out: Kd^app RCOR1): > 300 µM; Kd (CoREST complex; read-out: Kd^app RCOR2): > 300 µM; Kd (CoREST complex; read-out: Kd^app RCOR3): > 300 µM; Kd (CoREST complex; read-out: Kd^app ZMYM2): > 300 µM; Kd (CoREST complex; read-out: Kd^app ZMYM3): > 300 µM
 | O=C(CCCCCCC(=O)Nc1ccccc1)NO [SAHA, suberoylanilide hydroxamic acid] |  | > 10 | > 10 |  |  |  |  |  |  |  |  |  |  |  | increased steady state acetylation of tubulin and histones | 
 | O=C(/C=C/c1cccc(S(=O)(=O)Nc2ccccc2)c1)NO [belinostat] | > 10 | 3.5 | 1.98 | > 10 | 2.25 |  |  |  |  |  |  |  |  |  |  | 
> 59.7 | CCCCOc1ccc(CC(=O)NO)cc1 [bufexamac] | 3 | 304 | 149 | 3 | 3 | > 59.7 | > 59.7 | > 59.7 | > 59.7 | > 59.7 | > 59.7 | 128 | 172 | 105 | did not affect the acetylation of histones | 
358 | CCCC(CCC)C(=O)O [valproate, valproic acid] | > 10 | > 10 | > 10 | > 10 | > 10 | 224 | 322 | 380 | 258 | 311 | 274 | 700 | 922 | 1210 | elicited staining of acetylated histones | Kd (CoREST complex; protein PHF21A, CoREST complex, read-out: Kd^app PHF21A): 438 µM

Structure (SMILES) | Kd (HDAC1) [µM] | Kd [1] [µM] | Kd [2] [µM] | Kd [3] [µM] | Kd [4] [µM] | Kd [5] [µM] | Kd (CoREST complex; [7]) [µM] | Kd (CoREST complex; [8]) [µM] | Kd (CoREST complex; [9]) [µM] | Kd (CoREST complex; [10]) [µM] | Kd (CoREST complex; [11]) [µM] | Kd (CoREST complex; [12]) [µM] | Kd (CoREST complex; [13]) [µM] | Kd (CoREST complex; [14]) [µM] | Kd (EHMT2) [µM] | histone acetylation (in words) [6] | further results
Nc1ccccc1NC(=O)CCCCCCC(=O)Nc1ccccc1 [BML-210] | 36 | > 85 | > 85 | > 85 | > 85 | > 85 | 51 | 40 | 50 | 46 | 85 | 55 | > 85 | > 85 | > 85 |  | 
